Here are results for six compounds from US20160067301A1, “ANTAGONISM OF ABCG4, LYN KINASE, AND C-CBL E3 LIGASE TO INCREASE PLATELET COUNT AS THERAPY FOR THROMBOCYTOPENIA” (The Trustees of Columbia University in the City of New York, priority 2013, published 2016).

Where a SMILES comes first, the peptide text is derived from it. The star is where a group is joined. Cbz = O=C(OCc1ccccc1)*

Test [1] relates to cell surface c-MPL on MkPs. The test can be described thus: Cell surface c-MPL expression on MkPs by flow cytometry. In kind it is cell-based, mouse. The note with it: for cell surface c-MPL levels in MkPs: bone marrow progenitor cells from WT or Abcg4−/− mice, TPO 10 ng/ml, 2 hrs, Tolimidone 10 μM, CRIN-1 1 μM (FIG. 18). As for the experimental part: After harvesting bone marrow progenitor cells, RBCs were lysed, and the cells were resuspended in FACS buffer, Bone marrow cells were stained for MkPs as stated above, and c-MPL or isotype control antibodies were included. Cells were then washed and stained with a fluorescently conjugated secondary rabbit-specific antibody to detect the antibody to c-MPL for a further 30 min on ice. Following this, the cells were washed, resuspended in FACS buffer and run on an LSRII flow cytometer. MEPs were identified as Lin^−c-Kit^+CD16/CD32^loCD34^loCD41^−, and MkPs were identified as Lin^−c-Kit^+CD16/CD32^loCD34^loCD41^+.
(In general: In flow cytometry, cells or beads pass a laser one at a time.)

Test [2] concerns c-CBL phosphorylation in MkPs. Put plainly: c-CBL tyrosine phosphorylation in MkPs in response to TPO (phospho-flow cytometry). The test is classed as cell-based, mouse. To be noted: for c-CBL phosphorylation: 5 min TPO, CD 3 mM or CD-chol 30 min, rHDL 20 μg apoA-I ml-1 2 h, SU6656 10 μg ml-1 2 h. As for the experimental part: Bone marrow progenitor cells were stimulated with TPO at the indicated concentration for the specified period of time at 37° C. and then immediately diluted with ice-cold buffer and placed on ice to prevent further changes in phosphorylation. Cells were then centrifuged at 800 g for 2 min, and the pellet was resuspended in BD fix buffer (BD Biosciences) for 10 min on ice. The cells were washed with BD flow cytometry staining buffer, centrifuged, and then resuspended in BD cytofix/perm buffer III for 20 min. After this, the cells were washed and resuspended in BD staining buffer and incubated with lineage (Sca1, CD127, CD45R, CD19, CD11b, CD3e, TER-119, CD2, CD8, CD4 and Ly-6G, all FITC; eBioscience) and progenitor cell markers (c-Kit, CD16/CD32 (FcγRII/III), CD34, CD41 and antibody to p-c-CBL (Tyr700 human, Tyr698 mouse; BD Biosciences)) or an isotype control for 30 min on ice. The cells were then washed, resuspended in FACS buffer and run on an LSRII. The amount of phosphorylated c-Cbl was normalized against that of isotype control staining.

The subject of another test is WT and Abcg4−/− mice. The test can be described thus: Platelet count after a single TPO injection in WT and Abcg4−/− mice. The test is classed as in vivo, mouse. The note with it: for increase in the number of platelets: single dose TPO 50 μg per kg body weight (FIG. 2i). An excerpt: The Institutional Animal Care and Use Committee of Columbia University approved all the mouse studies. Abcg4−/−, Abcg1−/− Abca1−/− and Abcg1−/− mice in a C57BL/6J background were created as described and used in this study. Abcg4−/− mice were backcrossed onto C57BL/6J mice for more than ten generations. WT (C57BL/6J) and Ldlr−/− (B6.129S7-Ld1rtm1Her) mice were obtained from The Jackson Laboratory (Bar Harbor, Me.). For bone marrow transplantation studies, bone marrow from WT, Abcg4−/−, Abcg1−/− Abca1−/− or Abcg1−/− mice was transplanted into WT or Ldlr−/− recipient mice as described. For atherosclerosis studies, bone marrow-transplanted recipient mice were fed a Western diet (TD88137, Harlan Teklad) for the indicated period of time. Bone marrow-specific retro-viral expression of murine c-MPL^W515L was established as described44 using WT C57BL/6J mice as the recipient and WT C57BL/6J or Abcg4−/− mice as the bone marrow donor. Where indicated, vehicle (saline), rHDL or TPO (R&D Systems) was injected at the indicted dose into the mice through the tail vein. rHDL (CSL-111) was provided by CSL Behring AG, Bern, Switzerland; CSL-111 is composed of human apoA-I and phosphatidylcholine from soy bean in a ratio of 1:150. […]
Complete blood counts were quantified using whole blood collected from tail bleeding. A FORCYTE Veterinary Hematology Analyzer (Oxford Science, Inc.) was used for the analysis.

Another test deals with MkPs. Put plainly: MkP proliferation (EdU incorporation, flow cytometry). The test is classed as cell-based, mouse. The note with it: 16 h with TPO.
A further test concerns bone marrow HSPCs. The test can be described thus: MK-CFU megakaryocyte colony-forming assay. In kind it is cell-based, mouse. To be noted: ABCG4-deficient cells (FIG. 13c). The procedure: Primary bone marrow HSPCs obtained by FACS were plated in methylcellulose-based medium (5,000 cells per assay) containing TPO (50 ng interleukin-6 (IL-6) (20 ng ml^−1) and IL-3 (10 ng ml^−1) and incubated for 8 d according to the manufacturer's protocol (Megacult-C, Stemcell Technologies). Cultures were fixed, and megakaryocyte colonies were visualized by staining for acetylcholinesterase activity. Nuclei were counterstained with Harris' hematoxylin. Colonies containing more than three megakaryocytes were scored as MK-CFUs.

The mark [3] stands for this setting: WT MkPs, with TPO 30 ng ml-1, CD 3 mM or CD-chol 30 min, rHDL 20 μg ml-1, MG132 10 μM 2 h, SU6656 10 μg ml-1 2 h.
Where [4] appears, read: Abcg4−/− MkPs, with TPO 30 ng ml-1, CD 3 mM or CD-chol 30 min, rHDL 20 μg ml-1, SU6656 10 μg ml-1 2 h.

`COc1c2c(cc3c1C(CN)N(C)CC3)OCO2` (stereo not shown) [CRIN-1]: the “cell surface c-MPL levels in MkPs” value in test [1] is on record as “increases”.
In the case of `CC(C)C[C@@H](C=O)NC(=O)[C@H](CC(C)C)NC(=O)[C@H](CC(C)C)NC(=O)OCc1ccccc1` [MG132] (Cbz-Leu-Leu-Leu-aldehyde), in test [1] (setting [3]), the “cell surface c-MPL expression” value is “increased c-MPL expression to a level similar to that in Abcg4−/− cells”.
Turning to `CN(C)S(=O)(=O)c1ccc2c(c1)/C(=C/c1cc3c([nH]1)CCCC3)C(=O)N2` [SU6656], the “cell surface c-MPL expression” value in test [1] (setting [4]) and in test [1] (setting [3]) was “increased cell surface expression of c-MPL” in each case. Also, the c-CBL phosphorylation entry in test [2] (Abcg4−/− MkPs) and in test [2] (WT MkPs) was “markedly decreased c-CBL phosphorylation” in each case. In addition, the “difference in response to TPO between WT and Abcg4−/− MkPs (c-CBL phosphorylation, c-MPL expression)” value in test [2] (SU6656 10 μg ml-1 for 2 h) is “abolished the difference in response to TPO”.
With “TPO: Thrombopoietin (R&D Systems), growth factor regulating megakaryocyte and platelet development”, the “increase of platelet count after single injection of TPO, compared with wild type” value with WT and Abcg4−/− mice (Abcg4−/− mice (FIG. 17)) is listed as “much more pronounced”. In addition, the “increase in the number of platelets” value in the test with WT and Abcg4−/− mice (Abcg4−/− mice) is given as 2.1 fold; with WT and Abcg4−/− mice (WT mice), 1.4 fold. Also, the “platelet count after single injection of TPO” value in the test on WT and Abcg4−/− mice (wild type mice (FIG. 17)) is recorded as “induced increase of platelet count”.
Turning to Tolimidone, the “cell surface c-MPL expression” value in test [1] (Abcg4−/− MkPs from hypercholesterolemic (WTD-fed) Ldlr−/− recipient mice, 10 μM, TPO, 2 h) is given as “reduced cell surface c-MPL expression”; in test [1] (WT MkPs from hypercholesterolemic (WTD-fed) Ldlr−/− recipient mice, 10 μM, TPO, 2 h), “reduced cell surface c-MPL expression”. The “cell surface expression of c-MPL” value in test [1] (Abcg4−/− MkPs from normocholesterolemic mice (FIG. 14)) is given as “completely reversed the increased cell surface expression of c-MPL”. Moreover, in test [1], the “cell surface c-MPL levels in MkPs” value is reported as “decreases”.
In the case of methyl-β-cyclodextrin, the “cell surface c-MPL expression” value in test [1] (setting [4]) is “significantly reduced to levels similar to those in cyclodextrin-treated WT MkPs”. The c-CBL phosphorylation entry in test [2] (Abcg4−/− MkPs) and in test [2] (WT MkPs) was “increased c-CBL phosphorylation” throughout. The “MkP proliferation (EdU incorporation)” value is listed as “significantly reduced to levels similar to those in cyclodextrin-treated WT MkPs” with MkPs (Abcg4−/− MkPs, CD 3 mM or CD-chol 30 min pretreatment, rHDL 20 μg ml-1 16 h); “unresponsive” in the test on MkPs (Lyn−/− MkPs, cholesterol loading or depletion treatments); “decreased the proliferation” with MkPs (WT MkPs, CD 3 mM or CD-chol 30 min pretreatment, rHDL 20 μg ml-1 16 h). In addition, the “number of megakaryocyte colonies” value with bone marrow HSPCs is listed as “reversed the increase in the number of magakaryecyte colonies”.
